Results taken from patent publication US20120015925A1, “NOVEL BENZOTHIAZEPINE AND BENZOTHIEPINE COMPOUNDS” (ASAHI KASEI PHARMA CORPORATION, priority 2004, published 2012).

Assays:
Caco-2 cell = experiment: Gastrointestinal toxicity: cytotoxicity against Caco-2 cell (LDH activity); assay type: cell-based, human; conditions: 2 hours, LDH activity in medium relative to cell lysis agent = 100%
Summary of the method: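 Caco-2 cells were grown 48 h, then exposed to compound in medium for 2 h. LDH released into the medium was measured, and cytotoxicity was expressed as activity relative to lysis-agent-treated cells (100%).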

[1] = system: rats with partial ligation of the bile duct dosed bile acid; experiment: Model for hepatic disorder associated with cholestasis (partial bile duct ligation model), Protocol A: AST, ALT, ALP; assay type: in vivo, rat
Excerpt: In the present Test Example, a model for the hepatic disorder caused by partial ligation of the bile duct was employed with reference to Kanno's method (Liver, 43, Suppl(1):A126, 2002).
That is, to the SD (IGS) strain male rats at 7 to 10 weeks of age, the partial ligation of the bile duct was given with opening the abdominal cavity under anesthesia with pentobarbital. Before the operation, the blood was collected from femoral vein, in order to obtain the value before the administration. From the day after the operation, 200 mg/kg of bile acid and the test compound were orally administered forcibly twice per day for 3.5 days (Protocol A). Without giving the partial ligation of the bile duct, 200 mg/kg of bile acid and the test compound were also orally administered forcibly twice per day for 3.5 days (Protocol B). In both cases, the test compound was dissolved or suspended in distilled water or an aqueous solution of 1% HCO 60 (Nippon Chemicals). To the control group, saline was administered. As comparative examples, 25 mg/kg of cholestyramine (supplied from Sigma) or 50 mg/kg of ursodeoxycholic acid (supplied from Mitsubishi Pharma) was administered. For considering the effect of the operation, sham operation (sham group) was performed in some cases. The blood was collected from the abdominal aorta 6 hours after the drug administration on the final day of the experiment. AST (GOT), ALT (GPT) and ALP in the blood were measured using measurement kits (GOT II-HA Test Wako, GPT II-HA Test Wako and Alkaline Phosphor HA Test Wako, all were supplied from Wako Pure Chemical Industries) and using an automatic analyzer (Nitech ANALAYZER SUPER Z818).

male beagle dogs = experiment: Effect of combination with pravastatin on plasma total cholesterol levels in dogs; assay type: in vivo, dog; conditions: for plasma total cholesterol BEFORE TREATMENT: Example compound 3 mg/kg alone group, baseline; for plasma total cholesterol BEFORE TREATMENT / plasma total cholesterol AFTER TREATMENT: N=4, mean±standard error; for plasma total cholesterol AFTER TREATMENT / plasma total cholesterol BEFORE TREATMENT − AFTER TREATMENT / reduction rate with respect to the data before administration (number in parenthesis): Example compound 3 mg/kg alone, oral once daily for 7 days; for plasma total cholesterol BEFORE TREATMENT − AFTER TREATMENT / reduction rate with respect to the data before administration (number in parenthesis): vehicle 1
Excerpt: The effect of the combination of the compounds described in Example with pravastatin (HMG-CoA reductase inhibitor) on plasma cholesterol levels in dogs was examined.
To male beagle dogs (supplied from Kitayama Labes, body weight 9 to 13 kg), usual solid feedstuff (DS-A: Oriental Yeast Co., Ltd.) was given once daily at 13:00 to 14:00. The light was turned on from 7:00 to 19:00 as a light period, and the remaining was defined as a dark period. Water was given ad libitum. In the morning in the week prior to the administration, the blood was collected with heparin from forearm cephalic vein, and plasma was collected by centrifugation. The total cholesterol level of this plasma was measured using the commercially available cholesterol level measurement kit by the enzymatic method (Cholesterol-E Test Wako). The dogs were grouped so that the total cholesterol levels were almost equal. Sodium pravastatin (1 mg/kg, Sankyo) alone or 3 mg/kg of the compound described in each of Examples alone or the combination thereof was orally administered once daily just before feeding for 7 days. Pravastatin was dissolved in distilled water, and the compound described in Example was suspended in 0.5% methylcellulose solution for administration. On the day after the final administration, the blood was collected from the forearm cephalic vein under starving, to which plasma was obtained. The total cholesterol level therein was measured by the same way. As a result, the total cholesterol level in the plasma was reduced by 7 mg/dL (6%) by orally administering 1 mg/kg/day of pravastatin for 7 days. The total cholesterol level in the plasma was reduced by […] (3 to 8%) by orally administering 3 mg/kg/day of the compound described in each of Examples for 7 days. When pravastatin and the compound described in each of Examples were co-administered at this dosages, the total cholesterol in the plasma was reduced by 14 to 24 mg/dL (12 to 20%). The reduction rate of the total cholesterol level was larger in the co-administration with the compound described in Example than in the administration of pravastatin alone, and the augmented effect by the co-administration was observed.

[2] = target: T1, human IBAT transporter in which alanine at position 171 has been substituted with serine (Homo sapiens, UniProt Q12908); experiment: In vitro assay using Cos 7 cells, human IBAT with alanine 171 substituted with serine; assay type: cell-based; conditions: 10 nM test compound
T1 sequence (Q12908 1-348): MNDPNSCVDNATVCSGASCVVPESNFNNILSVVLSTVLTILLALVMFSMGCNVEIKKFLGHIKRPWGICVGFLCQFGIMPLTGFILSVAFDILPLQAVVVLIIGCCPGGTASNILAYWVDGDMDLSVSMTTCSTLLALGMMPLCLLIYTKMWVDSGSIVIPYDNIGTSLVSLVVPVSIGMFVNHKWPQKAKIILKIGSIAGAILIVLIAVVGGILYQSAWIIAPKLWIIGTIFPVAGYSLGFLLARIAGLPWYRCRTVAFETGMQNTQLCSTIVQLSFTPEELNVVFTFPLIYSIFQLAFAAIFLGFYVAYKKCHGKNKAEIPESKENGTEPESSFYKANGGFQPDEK

[3] = Table 12-1, Protocol A, 1 mg/kg in 1% HCO 60, N=3, mean±standard error, control group 417 ± 185, sham 43 ± 1
[4] = Table 12-1, Protocol A, 1 mg/kg in 1% HCO 60, N=3, mean±standard error, control group 589 ± 221, sham 141 ± 26
[5] = Table 12-1, Protocol A, 1 mg/kg in 1% HCO 60, N=3, mean±standard error, control group 2318 ± 583, sham 665 ± 94
[6] = Table 12-2, 1 mg/kg in 1% HCO 60, N=3, mean±standard error, control group 384 ± 156, sham 48 ± 5
[7] = Table 12-2, 1 mg/kg in 1% HCO 60, N=3, mean±standard error, control group 643 ± 125, sham 128 ± 18
[8] = Table 12-2, 1 mg/kg in 1% HCO 60, N=3, mean±standard error, control group 2204 ± 327, sham 630 ± 87

Structure (SMILES) | CELL TOXICITY AGAINST Caco2 3 μM (Caco-2 cell) [%] | CELL TOXICITY AGAINST Caco2 10 μM (Caco-2 cell) [%] | CELL TOXICITY AGAINST Caco2 30 μM (Caco-2 cell) [%] | ALT [1, 3] [IU/L] | AST [1, 4] [IU/L] | ALP [1, 5] [IU/L] | plasma total cholesterol BEFORE TREATMENT (male beagle dogs) [mg/dL] | plasma total cholesterol AFTER TREATMENT (male beagle dogs) [mg/dL] | plasma total cholesterol BEFORE TREATMENT − AFTER TREATMENT (male beagle dogs) | reduction rate with respect to the data before administration (number in parenthesis) (male beagle dogs) | ALT [1, 6] [IU/L] | AST [1, 7] [IU/L] | ALP [1, 8] [IU/L] | Cos 7 WITH HUMAN IBAT IN WHICH 171ST ALANINE IS SUBSTITUTED WITH SERINE INHIBITION (%) AT TEST COMPOUND CONCENTRATION OF 10 nM [2] [%] | ALT ([1]; Table 11, Protocol A, 0.1 mg/kg oral twice per day for 3.5 days, N=8, mean±standard error, control group 200 ± 81) [IU/L] | AST ([1]; Table 11, Protocol A, 0.1 mg/kg oral twice per day for 3.5 days, N=8, mean±standard error, control group 400 ± 160) [IU/L] | ALP ([1]; Table 11, Protocol A, 0.1 mg/kg oral twice per day for 3.5 days, N=8, mean±standard error, control group 1120 ± 410) [IU/L]
C#CC[N+](C)(Cc1ccccc1)Cc1ccc(NC(=S)Nc2cccc(C3NC(CCCC)(CCCC)CS(=O)(=O)c4ccc(N(C)C)cc43)c2)cc1.[Br-] (racemic) [EXAMPLE 3448] | <1 | <1 | <1 | 181 ± 79 | 352 ± 210 | 1148 ± 332 | – | – | – | – | – | – | – | – | – | – | –
CCCCC1(CCCC)CS(=O)(=O)c2ccc(N(C)C)cc2C(c2cccc(NC(=S)Nc3ccc(C[N+]45CCC(c6ccccc6)(CC4)CC5)cc3)c2)N1.[Br-] (racemic) [EXAMPLE 3696] | <1 | <1 | <1 | – | – | – | 119 ± 2 | 115 ± 3 | 3 (3) mg/dL | 3 (3) | 191 ± 21 | 325 ± 87 | 1209 ± 125 | – | – | – | –
CCCCC1(CCCC)CS(=O)(=O)c2ccc(N(C)C)cc2C(c2cccc(NC(=S)CCCCC[N+]34CCC(CC3)CC4)c2)N1.[Br-] (stereo not shown) [EXAMPLE 1, 1-{5-[3-(3,3-dibutyl-7-dimethylamino-1,1-dioxo-2,3,4,5-tetrahydro-1,4-benzothiazepine-5-yl)phenylthiocarbamoyl]pentyl}-1-azoniabicyclo[2.2.2]octane bromide] | – | – | – | – | – | – | – | – | – | – | – | – | – | 53 | 61 ± 4 | 182 ± 42 | 603 ± 78
CCCCC1(CCCC)CS(=O)(=O)c2ccc(N(C)C)cc2C(c2cccc(NC(=S)Nc3ccc(C[N+](C)(C)Cc4ccccc4)cc3)c2)N1.[Br-] (stereo not shown) [EXAMPLE 3440] | <1 | <1 | <1 | 155 ± 38 | 309 ± 37 | 1614 ± 189 | – | – | – | – | – | – | – | – | – | – | –
CCCCC1(CCCC)CS(=O)(=O)c2ccc(N(C)C)cc2C(c2cccc(NC(=S)Nc3ccc(C[N+]4(Cc5ccccc5)CCC(O)CC4)cc3)c2)N1.[Br-] (stereo not shown) [EXAMPLE 3605] | <1 | <1 | <1 | 258 ± 219 | 487 ± 382 | 1489 ± 533 | – | – | – | – | – | – | – | – | – | – | –
CCCCC1(CCCC)CS(=O)(=O)c2ccc(N(C)C)cc2C(c2cccc(NC(=S)Nc3ccc(C[n+]4ccc(C(C)(C)C)cc4)cc3)c2)N1.[Br-] (stereo not shown) [EXAMPLE 3713] | <1 | <1 | <1 | – | – | – | 117 ± 4 | 113 ± 3 | 4 mg/dL | 3 | 163 ± 96 | 280 ± 61 | 1008 ± 289 | – | – | – | –
CCCCC1(CCCC)CS(=O)(=O)c2ccc(N(C)C)cc2C(c2cccc(NC(=S)Nc3ccc(C[n+]4cccc(CCCO)c4)cc3)c2)N1.[Br-] (stereo not shown) [EXAMPLE 3747] | <1 | <1 | <1 | – | – | – | – | – | – | – | 146 ± 70 | 245 ± 81 | 960 ± 259 | – | – | – | –
CCCCC1(CCCC)CS(=O)(=O)c2ccc(N(C)C)cc2C(c2cccc(NC(=S)Nc3ccc(C[n+]4cccc(CCC(=O)OC)c4)cc3)c2)N1.[Br-] (stereo not shown) [EXAMPLE 3752] | <1 | <1 | <1 | – | – | – | – | – | – | – | 165 ± 47 | 358 ± 87 | 1112 ± 184 | – | – | – | –
CCCCC1(CCCC)CS(=O)(=O)c2ccc(N(C)C)cc2C(c2cccc(NC(=S)Nc3ccc(C[n+]4ccccc4CCC)cc3)c2)N1.[Br-] (stereo not shown) [EXAMPLE 5408] | <1 | <1 | <1 | – | – | – | 128 ± 4 | 122 ± 4 | 6 mg/dL | 5 | 197 ± 45 | 198 ± 65 | 1005 ± 102 | – | – | – | –
